Measured values: patent US20220168309A1 (F-STAR THERAPEUTICS, INC., priority 2019, published 2022)

Target: STING (Homo sapiens, UniProt Q86WV6)
Experiment: STING antagonist activity, cell-based ISG54 promoter-reporter luciferase measurement of IRF activity (THP-1 dual / RAW-ISG cells)
Conditions: Antagonist Activity of Exemplary Compounds; cell line and agonist not given; read-out: IC50
Procedure: THP-1 dual cells (InvivoGen) were cultured under 5% CO2 at 37° C. in RPMI containing 10% fetal bovine serum (FBS), 100 IU mL-1 penicillin and 100 μg mL-1 streptomycin. RAW-ISG cells (InvivoGen) were cultured under 5% CO2 at 37° C. in DMEM containing 10% fetal bovine serum (FBS), 100 IU mL-1 penicillin and 100 μg mL-1 streptomycin. THP-1 dual cells were seeded into the 96 well assay plate on the day of assay whereas RAW cells were seeded into the 96 well assay plate 18 hours before the assay.
(§1) 50,000 cells seeded in a 96-well flat bottom white assay plate were treated with different concentrations (10 uM to 0.01 uM) of compounds for 1 h followed by STING induction with either 30 nM SB 11285 or 10 ug/mL 2′-3′ cGAMP. The cells were then incubated for 20 hours @ 37° C. in CO2 incubator before measuring IRF activation by using Quanti-Luc (InvivoGen). The % inhibition was calculated as 100−{[(luminescence of COI treated well/luminescence of non-COI treated well)/100]×100}. IC50 was calculated by plotting in Xlfit.
as §1, with “1 μM” for “30 nM”
THP1-Dual-WT cells (InvivoGen) were plated into 96-well flat bottom plate at 5×10^4 cells/140 μL/well in triplicate. Cells were then treated with diluted antagonist compounds at 10 μL/well for 1 h, followed by treatment with compounds or 2′3′-cGAMP/lipo mixture for 18 h. The levels of IRF activity were determined using Quanti-luc (InvivoGen) and calculated against IRF activity in DMSO-treated cells. IC50 and CC50 values were calculated using Xlfit.

Chain of STING (Q86WV6 whole entry): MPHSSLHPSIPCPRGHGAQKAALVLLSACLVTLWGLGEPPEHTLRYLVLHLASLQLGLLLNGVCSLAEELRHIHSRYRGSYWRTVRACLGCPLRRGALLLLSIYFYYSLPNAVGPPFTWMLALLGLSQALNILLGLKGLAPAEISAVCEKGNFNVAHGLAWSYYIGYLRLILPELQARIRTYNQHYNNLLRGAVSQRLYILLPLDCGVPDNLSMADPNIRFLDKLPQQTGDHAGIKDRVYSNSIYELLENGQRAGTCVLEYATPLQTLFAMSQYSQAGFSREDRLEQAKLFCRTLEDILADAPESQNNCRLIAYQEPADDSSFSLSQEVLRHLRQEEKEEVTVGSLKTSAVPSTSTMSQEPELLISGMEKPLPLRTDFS

Clc1nc(Cl)c2c(ncn2CCCCn2cnc3nc(Cl)nc(Cl)c32)n1 [Compound 55, 1,4-bis(2,6-dichloro-7H-purin-7-yl)butane]
IC50: 5000 to 10000 nM

COC(=O)C(C)(C)n1cnc2nc(Cl)nc(Cl)c21 [Compound 56, methyl 2-(2,6-dichloro-7H-purin-7-yl)-2-methylpropanoate]
IC50: > 20000 nM

COC(=O)C(CCC(C(=O)OC)n1cnc2nc(Cl)nc(Cl)c21)n1cnc2nc(Cl)nc(Cl)c21 (centres unmarked) [Compound 57, dimethyl 2,5-bis(2,6-dichloro-7H-purin-7-yl)hexanedioate]
IC50: 1000 to 5000 nM

Clc1nc(Cl)c2c(ncn2C/C=C\Cn2cnc3nc(Cl)nc(Cl)c32)n1 [Compound 58, (Z)-1,4-bis(2,6-dichloro-7H-purin-7-yl)but-2-ene]
IC50: > 20000 nM

Cc1nc2nc(Cl)nc(Cl)c2n1CCCCCCCCCCCCn1c(C)nc2nc(Cl)nc(Cl)c21 [Compound 59, 1,12-bis(2,6-dichloro-8-methyl-7H-purin-7-yl)dodecane]
IC50: 1 to 1000 nM

COC(=O)CCCCn1c(C)nc2nc(Cl)nc(Cl)c21 [Compound 60, methyl 5-(2,6-dichloro-8-methyl-7H-purin-7-yl)pentanoate]
IC50: 5000 to 10000 nM

Cc1nc2nc(Cl)nc(Cl)c2n1CCCCCCCCCCn1c(C)nc2nc(Cl)nc(Cl)c21 [Compound 61, 1,10-bis(2,6-dichloro-8-methyl-7H-purin-7-yl)decane]
IC50: 1 to 1000 nM

Cc1nc2nc(Cl)nc(Cl)c2n1CCCCCCO [Compound 62, 6-(2,6-dichloro-8-methyl-7H-purin-7-yl)hexan-1-ol]
IC50: 1000 to 5000 nM

Cc1nc2nc(Cl)nc(Cl)c2n1CCCCCCCCn1c(C)nc2nc(Cl)nc(Cl)c21 [Compound 63, 1,8-bis(2,6-dichloro-8-methyl-7H-purin-7-yl)octane]
IC50: 1 to 1000 nM

Cc1nc2nc(Cl)nc(Cl)c2n1CCCCn1c(C)nc2nc(Cl)nc(Cl)c21 [Compound 64, 1,4-bis(2,6-dichloro-8-methyl-7H-purin-7-yl)butane]
IC50: > 20000 nM

Cc1nc2nc(Cl)nc(Cl)c2n1CCCCCCCl [Compound 65, 2,6-dichloro-7-(6-chlorohexyl)-8-methyl-7H-purine]
IC50: 1000 to 5000 nM

COC(=O)Cn1c(C)nc2nc(Cl)nc(Cl)c21 [Compound 66, methyl 2-(2,6-dichloro-8-methyl-7H-purin-7-yl)acetate]
IC50: 1000 to 5000 nM

COc1ccc(Cn2c(C)nc3nc(Cl)nc(Cl)c32)cc1 [Compound 67, 2,6-dichloro-7-(4-methoxybenzyl)-8-methyl-7H-purine]
IC50: 1000 to 5000 nM

CC(=O)N1CCC(Cn2cnc3nc(Cl)nc(Cl)c32)CC1 [Compound 68, 1-(4-((2,6-dichloro-7H-purin-7-yl)methyl)piperidin-1-yl)ethan-1-one]
IC50: 5000 to 10000 nM

COC(=O)CCCCCCCCCCCCCCCn1c(C)nc2nc(Cl)nc(S(C)(=O)=O)c21 [Compound 69, methyl 16-(2-chloro-8-methyl-6-(methylsulfonyl)-7H-purin-7-yl)hexadecanoate]
IC50: 1 to 1000 nM

COC(=O)CCCCCCCCCCCCCCCn1c(C#CC2CC2)nc2nc(Cl)nc(Cl)c21 [Compound 70, methyl 16-(2,6-dichloro-8-(cyclopropylethynyl)-7H-purin-7-yl)hexadecanoate]
IC50: 1000 to 5000 nM

COC(=O)CCCCCCCCCCCCCCCn1c(-c2ccccc2)nc2nc(Cl)nc(Cl)c21 [Compound 71, methyl 16-(2,6-dichloro-8-phenyl-7H-purin-7-yl)hexadecanoate]
IC50: 1000 to 5000 nM

Cc1nc2nc(Cl)nc(Cl)c2n1CCCCCCCCCCCCCCCC(=O)O [Compound 72, 16-(2,6-dichloro-8-methyl-7H-purin-7-yl)hexadecanoic acid]
IC50: 10000 to 20000 nM

COC(=O)CCCCCCCCCCCCCCCn1c(C)nc2nc(Cl)nc(S(=O)(=O)C(C)C)c21 [Compound 74, methyl 16-(2-chloro-6-(isopropylsulfonyl)-8-methyl-7H-purin-7-yl)hexadecanoate]
IC50: 1 to 1000 nM

Cc1nc2nc(Cl)nc(Cl)c2n1CCCCCCCCCCCCCCCCO [Compound 75]
IC50: 1 to 1000 nM
